In brackets after ≈: the same amount, converted by molar mass. Counter-ions that a name gives are not always drawn. Like-named read-outs stand apart in the source and are kept apart here.
Columns and labels:
CaCiv1 = CaCiv1 (Candida albicans, UniProt A0A1D8PH53); test: Test of inhibition of the activity of CIV-CDK (CIV1); format: biochemical
Protocol: (Details of the Excipient: Lactose, Talc, Starch, Magnesium Stearate.) Pharmacological Part: 1) Test of Inhibition of the Activity of CIV-CDK (CIV1) a) PREPARATION of the Reagents […]
967 μl Buffer [50 mM Tris-HCl−0.1 M NaCl−pH 7.5]
−0.1% BSA+30 μl Cdk2 (1 mg/ml)
(2)-3× Inhibitor Cocktail
Prepare a 3× range of inhibitor in 3% of DMSO-Buffer
[50 mM Tris-HCl−0.1 M NaCl−pH 7.5]−0.1% BSA
ATP−pH 7.5+1 tablet of protease inhibitors (Complete EDTA Free™) per 5 ml of Buffer b) Carrying Out of the Test
1)—mix 30 μl of the 3× enzyme cocktail (1) with 30 μl of the 3× inhibitor cocktail (2) 2)—add 30 μl of the 3×ATP cocktail (3) (start of the reaction)
3)—incubate for 30 min at room temperature (20 to 25° C.)
4)—stop the reaction by adding 250 μl of Buffer [50 mM Tris-HCl−0.1 M NaCl−pH 7.5]−0.1% BSA−25 mM EDTA 5)—distribute 100 μl into a plate coated with antibodies directed against the reaction substrate 6)—incubate for 60 min at room temperature, stirring gently and then wash 3 times with 300 μl Buffer [50 mM Tris-HCl−0.1 M NaCl−pH 7.5]−0.05% Tween20
9)—Place the plate to dry for 30 min at 37° C.
10)—Place for counting in a scintillation counter c) Results Obtained, Expressed as IC50 Expressed in Micromolar

fungus = test: Minimum inhibitory concentration (MIC), NCCLS M27-A broth dilution antifungal susceptibility test; format: cell-based; conditions: RPMI 1640 medium, 37° C., visual reading, inhibition of at least 80% of growth; test strain not named
Text: A constant number of cells of a given strain are exposed to increasing concentrations of an antifungal, under conditions taken from NCCLS (National Committee for Clinical Laboratory Standards, 1997 [reference method for broth dilution antifungal susceptibility testing of yeasts]. Approved Standard M27-A. NCCLS, Villanova, Pa.); the minimum concentration with which a visible reduction in the cloudiness from cell growth was observed (at least 80% relative to a control with no product) is the minimum inhibitory concentration (MIC) of the antifungal for the test strain.
Supplement the L-glutamine-free RPMI 1640 medium (liquid) with L-glutamine (0.3 g/l or 10.5 ml of a solution at 200 mM) and buffer with 34.54 g/l (0.165 M) of M morpholinepropanesulfonic acid (MOPS). Sterilize the medium by filtration. Distribute 100 μl of RPMI medium into each well of a 96-well microplate. Distribute the appropriate volume of the antifungal solution in the first column of the microplate and adjust with medium to 200 μl. Carry out a 2-fold serial dilution in order to establish a range of 11 concentrations in each lane of the microplate. The 12th well of each row will serve as a control for growth. Prepare the cellular suspension from a (liquid or agar) culture or from a frozen vial, dilute it in RPMI medium in order to obtain a cellular suspension at 5×10^3-2×10^4 cells/ml. Distribute 100 μl of the cellular suspension into the microplate. The MIC for all the Candida species was read after 24-48 h, for Cryptococcus and Aspergillus after 48-72 h of incubation at 37° C. in a normal atmosphere. The MIC is read by visual readings by determining the well which contains the lowest dose of antifungal which causes an inhibition of at least 80% of the growth of the fungus.

[1] = CaCiv1 with Cdk2, [33P]ATP, 30 min at room temperature, scintillation counting, read-out: IC50

Sequence of CaCiv1 (A0A1D8PH53 entry or part of it): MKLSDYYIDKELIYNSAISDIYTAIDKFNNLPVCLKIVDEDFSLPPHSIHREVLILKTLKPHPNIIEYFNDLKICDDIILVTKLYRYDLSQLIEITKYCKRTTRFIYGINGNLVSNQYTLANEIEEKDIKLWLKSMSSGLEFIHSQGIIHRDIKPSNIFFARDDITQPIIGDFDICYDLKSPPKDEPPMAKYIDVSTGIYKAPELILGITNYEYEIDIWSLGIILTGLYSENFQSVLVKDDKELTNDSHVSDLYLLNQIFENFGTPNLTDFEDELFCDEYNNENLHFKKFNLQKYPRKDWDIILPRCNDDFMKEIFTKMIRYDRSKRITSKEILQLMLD

Compound	IC50 (CaCiv1; [1])	MIC (fungus)	IC50 (CaCiv1)
N[C@H]1CC[C@H](Nc2nc(Nc3ccccc3)c3nc[nH]c3n2)CC1 [Example 11, Trans-N2-(4-aminocyclohexyl)-N6-[4-phenyl]-1H-purine-2,6-diamine dihydrochloride]	2500 nM		
N[C@H]1CC[C@H](Nc2nc(Nc3ccc(C(=O)Nc4ccccc4)cc3)c3nc[nH]c3n2)CC1 [Example 19, Trans-4-[[2-[(4-aminocyclohexyl)amino]-9H-purin-6-yl]amino]-N-phenylbenzamide]	3800 nM		
CCOC(=O)c1cccc(Nc2nc(N[C@H]3CC[C@H](N)CC3)nc3[nH]cnc23)c1 [Example 14, Ethyl trans-3-[[2-[(4-aminocyclohexyl)amino]-9H-purin-6-yl]amino]benzoate]	2000 nM		
CCN(CC)CCOC(=O)c1ccc(Nc2nc(N[C@H]3CC[C@H](N)CC3)nc3[nH]cnc23)cc1 [Example 18, 2-(diethylamino)ethyl trans-4-[[2-[(4-aminocyclohexyl)amino]-9H-purin-6-yl]amino]benzoate]	4300 nM		
N[C@H]1CC[C@H](Nc2nc(Nc3ccc(Cl)c(Cl)c3)c3nc[nH]c3n2)CC1 [Example 16, trans-N2-(4-aminocyclohexyl)-N6-(3,4-dichlorophenyl)-9H-purine-2,6-diamine]	2900 nM	25 µg/mL (≈ 63.7 µM)	
N[C@H]1CC[C@H](Nc2nc(Nc3ccc(Cl)cc3)c3nc[nH]c3n2)CC1 [Example 15, Trans-N2-(4-aminocyclohexyl)-N6-(4-chlorophenyl)-9H-purine-2,6-diamine]		100 µg/mL (≈ 279 µM)	
CCOC(=O)c1ccc(Nc2[nH]c(N[C@H]3CC[C@H](N)CC3)nc3ncnc2-3)cc1 [Example 1, Ethyl trans-4-[[2-[(4-aminocyclohexyl)amino]-1H-purin-6-yl]amino]benzoate dihydrochloride]			500 nM
CCCCOC(=O)c1ccc(Nc2nc(N[C@H]3CC[C@H](N)CC3)nc3[nH]cnc23)cc1 [Example 17, Butyl trans-4-[[2-[(4-aminocyclohexyl)amino]-9H-purin-6-yl]amino]benzoate]	5600 nM	12.5 µg/mL (≈ 29.5 µM)	

Source: US20080090849A1, “NOVEL PURINE DERIVATIVES, PREPARATION METHOD AND USE AS MEDICINES” (AVENTIS PHARMA S.A., priority 2000, published 2008)
